Biological target: T1, KRAS (G12D)-HiBit in AsPc-1-KRAS (G12D)-HiBit-KI cell (Homo sapiens, UniProt P01116, G12D)
T1 construct: host or cells: AsPc-1-KRAS (G12D)-HiBit-KI cells (knock-in line)
Experiment: G12D HiBit assay
Format: cell-based
Conditions: 24 hours compound treatment, absolute DC50, read-out: Average PHA DC50
Method in brief: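 AsPc-1 cells with HiBiT knocked into KRAS G12D, seeded at 5×10^3/well and held overnight, then treated 24 h with 10-point 3-fold dilutions (300 nM to 0.015 nM). Lytic Nano-Glo HiBiT luminescence expressed as % of 0.1% DMSO control; absolute DC50 from curve fit.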

T1 sequence (P01116 1-188 isoform P01116-2 G12D): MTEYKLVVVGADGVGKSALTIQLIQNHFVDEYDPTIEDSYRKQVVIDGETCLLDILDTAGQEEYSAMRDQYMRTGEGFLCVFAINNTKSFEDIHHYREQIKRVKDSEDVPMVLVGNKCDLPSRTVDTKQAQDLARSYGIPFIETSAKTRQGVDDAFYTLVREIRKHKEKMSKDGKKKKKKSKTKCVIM

Compound	DC50 [nM]
C#Cc1c(F)ccc2cccc(-c3ncc4c(N5CC6CCC(C5)N6)nc(OC[C@@]56CCCN5[C@H](COC(=O)N5CCC(Cn7cc(-c8ccc9c(c8)n(C)c(=O)n9C8CCC(=O)NC8=O)nn7)CC5)CC6)nc4c3F)c12 (stereo partly drawn) [Compound 94, [(3S,8S)-8-[[4-(3,8-Diazabicyclo[3.2.1]octan-3-yl)-7-(8-ethynyl-7-fluoro-1-naphthyl)-8-fluoro-pyrido[4,3-d]pyrimidin-2-yl]oxymethyl]-1,2,3,5,6,7-hexahydropyrrolizin-3-yl]methyl 4-[[4-[1-(2,6-dioxo-3-piperidyl)-3-methyl-2-oxo-benzimidazol-5-yl]triazol-1-yl]methyl]piperidine-1-carboxylate]	≥ 300
C#Cc1c(F)ccc2cccc(-c3ncc4c(N5CC6CCC(C5)N6)nc(OC[C@@]56CCCN5[C@H](COC(=O)N5CCC(CCn7cc(-c8ccc9c(c8)n(C)c(=O)n9C8CCC(=O)NC8=O)nn7)CC5)CC6)nc4c3F)c12 (stereo partly drawn) [Compound 95, [(3S,8S)-8-[[4-(3,8-Diazabicyclo[3.2.1]octan-3-yl)-7-(8-ethynyl-7-fluoro-1-naphthyl)-8-fluoro-pyrido[4,3-d]pyrimidin-2-yl]oxymethyl]-1,2,3,5,6,7-hexahydropyrrolizin-3-yl]methyl 4-[2-[4-[1-(2,6-dioxo-3-piperidyl)-3-methyl-2-oxo-benzimidazol-5-yl]triazol-1-yl]ethyl]piperidine-1-carboxylate]	≥ 300
C#Cc1c(F)ccc2cccc(-c3ncc4c(N5CC6CCC(C5)N6)nc(OC[C@@]56CCCN5[C@H](COC(=O)N5CCC(Cn7cc(-c8cccc9c8n(C)c(=O)n9C8CCC(=O)NC8=O)nn7)CC5)CC6)nc4c3F)c12 (stereo partly drawn) [Compound 96, [(3S,8S)-8-[[4-(3,8-Diazabicyclo[3.2.1]octan-3-yl)-7-(8-ethynyl-7-fluoro-1-naphthyl)-8-fluoro-pyrido[4,3-d]pyrimidin-2-yl]oxymethyl]-1,2,3,5,6,7-hexahydropyrrolizin-3-yl]methyl 4-[[4-[1-(2,6-dioxo-3-piperidyl)-3-methyl-2-oxo-benzimidazol-4-yl]triazol-1-yl]methyl]piperidine-1-carboxylate]	≥ 300
C#Cc1c(F)ccc2cccc(-c3ncc4c(N5CC6CCC(C5)N6)nc(OC[C@@]56CCCN5[C@H](COC(=O)N5CCC(CCn7cc(-c8cccc9c8n(C)c(=O)n9C8CCC(=O)NC8=O)nn7)CC5)CC6)nc4c3F)c12 (stereo partly drawn) [Compound 97, [(3S,8S)-8-[[4-(3,8-Diazabicyclo[3.2.1]octan-3-yl)-7-(8-ethynyl-7-fluoro-1-naphthyl)-8-fluoro-pyrido[4,3-d]pyrimidin-2-yl]oxymethyl]-1,2,3,5,6,7-hexahydropyrrolizin-3-yl]methyl4-[2-[4-[1-(2,6-dioxo-3-piperidyl)-3-methyl-2-oxo-benzimidazol-4-yl]triazol-1-yl]ethyl]piperidine-1-carboxylate]	< 100
C#Cc1c(F)ccc2cccc(-c3ncc4c(N5CC6CCC(C5)N6)nc(OC[C@@]56CCCN5[C@H](COC(=O)N5CCC(OC7CCN(c8ccc9c(c8)n(C)c(=O)n9C8CCC(=O)NC8=O)CC7)CC5)CC6)nc4c3F)c12 (stereo partly drawn) [Compound 98, [(3S,8S)-8-[[4-(3,8-Diazabicyclo[3.2.1]octan-3-yl)-7-(8-ethynyl-7-fluoro-1-naphthyl)-8-fluoro-pyrido[4,3-d]pyrimidin-2-yl]oxymethyl]-1,2,3,5,6,7-hexahydropyrrolizin-3-yl]methyl 4-[[1-[1-(2,6-dioxo-3-piperidyl)-3-methyl-2-oxo-benzimidazol-5-yl]-4-piperidyl]oxy]piperidine-1-carboxylate]	< 100
C#Cc1c(F)ccc2cccc(-c3ncc4c(N5CC6CCC(C5)N6)nc(OC[C@@]56CCCN5[C@H](COC(=O)N5CCC(OC7CCN(c8cccc9c8n(C)c(=O)n9C8CCC(=O)NC8=O)CC7)CC5)CC6)nc4c3F)c12 (stereo partly drawn) [Compound 99, [(3S,8S)-8-[[4-(3,8-Diazabicyclo[3.2.1]octan-3-yl)-7-(8-ethynyl-7-fluoro-1-naphthyl)-8-fluoro-pyrido[4,3-d]pyrimidin-2-yl]oxymethyl]-1,2,3,5,6,7-hexahydropyrrolizin-3-yl]methyl 4-[[1-[1-(2,6-dioxo-3-piperidyl)-3-methyl-2-oxo-benzimidazol-4-yl]-4-piperidyl]oxy]piperidine-1-carboxylate]	< 100
C#Cc1c(F)ccc2cccc(-c3ncc4c(N5CC6CCC(C5)N6)nc(OC[C@@]56CCCN5[C@H](COC(=O)N5CCC(CN7CC(Oc8cccc9c8n(C)c(=O)n9C8CCC(=O)NC8=O)C7)CC5)CC6)nc4c3F)c12 (stereo partly drawn) [Compound 100, [(3S,8S)-8-[[4-(3,8-diazabicyclo[3.2.1]octan-3-yl)-7-(8-ethynyl-7-fluoro-1-naphthyl)-8-fluoro-pyrido[4,3-d]pyrimidin-2-yl]oxymethyl]-1,2,3,5,6,7-hexahydropyrrolizin-3-yl]methyl 4-[[3-[1-(2,6-dioxo-3-piperidyl)-3-methyl-2-oxo-benzimidazol-4-yl]oxyazetidin-1-yl]methyl]piperidine-1-carboxylate]	< 100
C#Cc1c(F)ccc2cccc(-c3ncc4c(N5CC6CCC(C5)N6)nc(OC[C@@]56CCCN5[C@H](COC(=O)N5CC(OCC7CCN(c8ccc9c(c8)n(C)c(=O)n9C8CCC(=O)NC8=O)CC7)C5)CC6)nc4c3F)c12 (stereo partly drawn) [Compound 101, [(3S,8S)-8-[[4-(3,8-Diazabicyclo[3.2.1]octan-3-yl)-7-(8-ethynyl-7-fluoro-1-naphthyl)-8-fluoro-pyrido[4,3-d]pyrimidin-2-yl]oxymethyl]-1,2,3,5,6,7-hexahydropyrrolizin-3-yl]methyl 3-[[1-[1-(2,6-dioxo-3-piperidyl)-3-methyl-2-oxo-benzimidazol-5-yl]-4-piperidyl]methoxy]azetidine-1-carboxylate]	< 100
C#Cc1c(F)ccc2cccc(-c3ncc4c(N5CC6CCC(C5)N6)nc(OC[C@@]56CCCN5[C@H](COC(=O)N5CCC(COC7CN(c8ccc9c(c8)n(C)c(=O)n9C8CCC(=O)NC8=O)C7)CC5)CC6)nc4c3F)c12 (stereo partly drawn) [Compound 102, [(3S,8S)-8-[[4-(3,8-Diazabicyclo[3.2.1]octan-3-yl)-7-(8-ethynyl-7-fluoro-1-naphthyl)-8-fluoro-pyrido[4,3-d]pyrimidin-2-yl]oxymethyl]-1,2,3,5,6,7-hexahydropyrrolizin-3-yl]methyl4-[[1-[1-(2,6-dioxo-3-piperidyl)-3-methyl-2-oxo-benzimidazol-5-yl]azetidin-3-yl]oxymethyl]piperidine-1-carboxylate]	< 100

The next lines start with the values.

DC50 [nM]	Compound
< 100	C#Cc1c(F)ccc2cccc(-c3ncc4c(N5CC6CCC(C5)N6)nc(OC[C@@]56CCCN5[C@H](COC(=O)N5CCN(CCC7CCN(Cc8ccc9c(c8)n(C)c(=O)n9C8CCC(=O)NC8=O)CC7)CC5)CC6)nc4c3F)c12 (stereo partly drawn) [Compound 88, [(3S,8S)-8-[[4-(3,8-Diazabicyclo[3.2.1]octan-3-yl)-7-(8-ethynyl-7-fluoro-1-naphthyl)-8-fluoro-pyrido[4,3-d]pyrimidin-2-yl]oxymethyl]-1,2,3,5,6,7-hexahydropyrrolizin-3-yl]methyl 4-[2-[1-[[1-(2,6-dioxo-3-piperidyl)-3-methyl-2-oxo-benzimidazol-5-yl]methyl]-4-piperidyl]ethyl]piperazine-1-carboxylate]
< 100	C#Cc1c(F)ccc2cccc(-c3ncc4c(N5CC6CCC(C5)N6)nc(OC[C@@]56CCCN5[C@H](COC(=O)N5CC(OC7CCN(Cc8ccc9c(c8)n(C)c(=O)n9C8CCC(=O)NC8=O)CC7)C5)CC6)nc4c3F)c12 (stereo partly drawn) [Compound 89, [(3S,8S)-8-[[4-(3,8-Diazabicyclo[3.2.1]octan-3-yl)-7-(8-ethynyl-7-fluoro-1-naphthyl)-8-fluoro-pyrido[4,3-d]pyrimidin-2-yl]oxymethyl]-1,2,3,5,6,7-hexahydropyrrolizin-3-yl]methyl 3-[[1-[[1-(2,6-dioxo-3-piperidyl)-3-methyl-2-oxo-benzimidazol-5-yl]methyl]-4-piperidyl]oxy]azetidine-1-carboxylate]
< 100	C#Cc1c(F)ccc2cccc(-c3ncc4c(N5C[C@H]6CC[C@@H](C5)N6)nc(OC[C@@]56CCCN5[C@H](COC(=O)N5CCC(CC7CCN(c8ccc9c(c8)n(C)c(=O)n9C8CCC(=O)NC8=O)CC7)CC5)CC6)nc4c3F)c12 (stereo partly drawn) [Compound 90, ((3S,7aS)-7a-(((4-((1R,5S)-3,8-Diazabicyclo[3.2.1]octan-3-yl)-7-(8-ethynyl-7-fluoronaphthalen-1-yl)-8-fluoropyrido[4,3-d]pyrimidin-2-yl)oxy)methyl)hexahydro-1H-pyrrolizin-3-yl)methyl4-((1-(1-(2,6-dioxopiperidin-3-yl)-3-methyl-2-oxo-2,3-dihydro-1H-benzo[d]imidazol-5-yl)piperidin-4-yl)methyl)piperidine-1-carboxylate]
< 100	C#Cc1c(F)ccc2cccc(-c3ncc4c(N5CC6CCC(C5)N6)nc(OC[C@@]56CCCN5[C@H](COC(=O)N5CCC(OCC#CC#Cc7ccc8c(c7)n(C)c(=O)n8C7CCC(=O)NC7=O)CC5)CC6)nc4c3F)c12 (stereo partly drawn) [Compound 92, [(3S,8S)-8-[[4-(3,8-Diazabicyclo[3.2.1]octan-3-yl)-7-(8-ethynyl-7-fluoro-1-naphthyl)-8-fluoro-pyrido[4,3-d]pyrimidin-2-yl]oxymethyl]-1,2,3,5,6,7-hexahydropyrrolizin-3-yl]methyl 4-[5-[1-(2,6-dioxo-3-piperidyl)-3-methyl-2-oxo-benzimidazol-5-yl]penta-2,4-diynoxy]piperidine-1-carboxylate]
< 100	C#Cc1c(F)ccc2cccc(-c3ncc4c(N5CC6CCC(C5)N6)nc(OC[C@@]56CCCN5[C@H](COC(=O)N5CCC(OCC#CC#Cc7cccc8c7n(C)c(=O)n8C7CCC(=O)NC7=O)CC5)CC6)nc4c3F)c12 (stereo partly drawn) [Compound 93, [(3S,8S)-8-[[4-(3,8-Diazabicyclo[3.2.1]octan-3-yl)-7-(8-ethynyl-7-fluoro-1-naphthyl)-8-fluoro-pyrido[4,3-d]pyrimidin-2-yl]oxymethyl]-1,2,3,5,6,7-hexahydropyrrolizin-3-yl]methyl4-[5-[1-(2,6-dioxo-3-piperidyl)-3-methyl-2-oxo-benzimidazol-4-yl]penta-2,4-diynoxy]piperidine-1-carboxylate]

From patent publication US12404285B2, “KRAS G12D proteolysis targeting chimeras” (PAQ Therapeutics Inc., priority 2022, dated 2025)
